The source made the active and inactive calls.
Assays:
[1] = molecular target: T1, Calpain-2 catalytic subunit (Sus scrofa, UniProt P43367); assay: pig calpain II inhibitor potency, dose response, biochemical, fluorogenic peptide substrate (AID 1420); assay type: functional
T1 sequence (P43367 whole entry): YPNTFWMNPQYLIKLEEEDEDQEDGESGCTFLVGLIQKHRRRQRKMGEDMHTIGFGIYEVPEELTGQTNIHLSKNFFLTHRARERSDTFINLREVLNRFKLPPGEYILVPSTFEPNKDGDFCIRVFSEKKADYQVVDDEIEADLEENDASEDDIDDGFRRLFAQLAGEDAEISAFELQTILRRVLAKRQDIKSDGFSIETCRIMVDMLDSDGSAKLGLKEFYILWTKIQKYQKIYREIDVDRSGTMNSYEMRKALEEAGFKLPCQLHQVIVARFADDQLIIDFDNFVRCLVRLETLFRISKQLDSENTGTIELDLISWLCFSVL

[2] = cells; assay type: functional
[3] = molecular target: T2, High affinity choline transporter 1 (Homo sapiens, UniProt Q9GZV3); assay: CHT inhibitors, dose response, cell-based, 5-point CRC, membrane potential dye (AID 504840); assay type: functional
T2 sequence (Q9GZV3 whole entry): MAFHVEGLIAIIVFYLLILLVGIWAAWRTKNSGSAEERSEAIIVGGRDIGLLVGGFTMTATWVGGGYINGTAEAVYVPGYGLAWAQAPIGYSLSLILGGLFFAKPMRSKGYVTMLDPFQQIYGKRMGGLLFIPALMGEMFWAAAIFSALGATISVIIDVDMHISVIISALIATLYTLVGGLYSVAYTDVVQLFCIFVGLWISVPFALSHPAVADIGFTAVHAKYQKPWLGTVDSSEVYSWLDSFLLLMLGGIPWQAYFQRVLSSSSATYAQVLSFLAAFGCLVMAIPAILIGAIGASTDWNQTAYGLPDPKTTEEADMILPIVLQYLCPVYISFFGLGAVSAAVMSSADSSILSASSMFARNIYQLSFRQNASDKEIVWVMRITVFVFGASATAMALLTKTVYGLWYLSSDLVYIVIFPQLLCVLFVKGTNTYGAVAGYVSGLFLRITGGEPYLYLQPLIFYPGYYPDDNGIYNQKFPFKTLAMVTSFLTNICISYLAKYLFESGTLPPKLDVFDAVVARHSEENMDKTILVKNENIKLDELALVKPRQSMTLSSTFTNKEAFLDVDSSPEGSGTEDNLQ

[4] = cells; assay type: functional, cell-based
[5] = cells; assay type: functional, cell-based; remark: listed apart in the source
[6] = molecular target: T3, Short transient receptor potential channel 4 (Mus musculus, UniProt Q9QUQ5); assay: mouse TRPC4 channel activators, dose response, cell-based, HEK293 TRPC4/mu-opioid, Fluo-4 calcium (AID 434937); assay type: functional
T3 sequence (Q9QUQ5 whole entry): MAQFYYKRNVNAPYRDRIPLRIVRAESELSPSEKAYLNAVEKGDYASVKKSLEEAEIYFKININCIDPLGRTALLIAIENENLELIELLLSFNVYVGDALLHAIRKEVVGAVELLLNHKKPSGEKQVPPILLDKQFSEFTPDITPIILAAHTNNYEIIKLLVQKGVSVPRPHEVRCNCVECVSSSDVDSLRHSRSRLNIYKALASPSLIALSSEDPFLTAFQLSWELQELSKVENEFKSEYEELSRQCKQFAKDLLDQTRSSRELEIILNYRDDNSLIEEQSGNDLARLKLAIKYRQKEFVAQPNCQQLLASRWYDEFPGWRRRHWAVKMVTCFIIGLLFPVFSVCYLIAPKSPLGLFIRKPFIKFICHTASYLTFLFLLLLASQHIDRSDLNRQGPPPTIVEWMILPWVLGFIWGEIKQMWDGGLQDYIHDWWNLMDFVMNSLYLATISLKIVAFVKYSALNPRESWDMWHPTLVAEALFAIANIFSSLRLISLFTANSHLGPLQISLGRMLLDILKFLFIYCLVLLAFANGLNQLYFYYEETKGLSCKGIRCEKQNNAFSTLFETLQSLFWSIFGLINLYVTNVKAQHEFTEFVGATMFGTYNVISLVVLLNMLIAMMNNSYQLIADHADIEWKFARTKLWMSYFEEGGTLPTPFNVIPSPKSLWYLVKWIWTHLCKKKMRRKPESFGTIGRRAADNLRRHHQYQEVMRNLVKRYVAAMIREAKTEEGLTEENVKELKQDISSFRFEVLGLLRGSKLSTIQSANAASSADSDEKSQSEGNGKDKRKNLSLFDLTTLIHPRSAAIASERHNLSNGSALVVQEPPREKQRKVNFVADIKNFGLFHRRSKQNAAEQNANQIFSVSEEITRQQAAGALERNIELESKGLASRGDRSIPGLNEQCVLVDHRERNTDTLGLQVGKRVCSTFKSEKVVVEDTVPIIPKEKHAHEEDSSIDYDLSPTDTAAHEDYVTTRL

[7] = test system: HEK293; assay: inhibitors of LMP1-driven NF-kB reporter, dose response, cell-based, HEK293, luciferase, cherry-pick (AID 588343); assay type: functional; conditions: Homo sapiens
[8] = test system: Streptococcus; assay: Group A Streptococcus viability loss, dose response, counter-screen for streptokinase expression inhibitor project, luminescence, BacTiterGlo (AID 1915); assay type: functional, organism-based;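 note: potency for reduction of bacterial viability or growth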
[9] = test system: Streptococcus sp. 'group A'; assay: growth inhibition of control SK(-) GAS strain, dose response, counter-screen for streptokinase expression inhibitor project, luminescence, kanamycin, BacTiterGlo, confirmation (AID 1900); assay type: functional, organism-based
[10] = molecular target: T4, Ubiquitin-conjugating enzyme E2 N (Homo sapiens, UniProt P61088); assay type: functional;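 note: Dose-response confirmation in a TR-FRET assay detecting UBC13-driven polyubiquitin chain formation, inhibition measured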
T4 sequence (P61088 whole entry): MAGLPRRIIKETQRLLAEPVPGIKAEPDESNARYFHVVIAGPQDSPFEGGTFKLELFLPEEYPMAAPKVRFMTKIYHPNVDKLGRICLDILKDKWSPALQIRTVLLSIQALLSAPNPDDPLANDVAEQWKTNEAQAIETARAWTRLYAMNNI

[11] = microbe, parasite or virus in culture; assay type: functional; conditions: Mycobacterium tuberculosis
[12] = molecular target: T3, Short transient receptor potential channel 4; assay: mouse TRPC4 channel inhibitors, dose response, cell-based, HEK293 TRPC4/mu-opioid, Fluo-4 calcium (AID 434942); assay type: functional;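 note: potency of inhibitors blocking the TRPC4 calcium response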
[13] = molecular target: Melanocortin receptor 4 (Homo sapiens, UniProt P32245); assay type: functional, cell-based;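 note: Cell-based assay with luminescence read-out, confirmatory dose-response testing for agonist activity of biased ligands at MC4R; human U2OS cells with tagged receptor and beta-arrestin; potency of agonists that increase receptor coupling to beta-arrestin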
[14] = molecular target: Cytochrome P450 2C19 (Homo sapiens, UniProt P33261); assay: Cytochrome panel assay with activity outcomes. Panel member name: p450-cyp2c19 Compounds with AC50 equal or less than 10 uM are considered active; assay type: functional; conditions: read-out: AC50
[15] = molecular target: Cytochrome P450 2C9 (Homo sapiens, UniProt P11712)
[16] = MC4R antagonists, dose response, counter-screen for LGR2 antagonist project, cell-based, plate reader, cherry pick (AID 743444); assay type: functional;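 note: transfected HEK 293 cells stimulated with alpha-MSH peptide; potency of inhibitors of the alpha-MSH evoked signal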
[17] = LGR2 antagonists, dose response, cell-based, HEK293, CRE-luciferase reporter, cherry pick, set 2 (AID 743343); assay type: functional;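 note: transfected cells were stimulated with diluted bursicon conditioned medium after compound addition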

Cytochrome P450 2C19, sequence (P33261 whole entry): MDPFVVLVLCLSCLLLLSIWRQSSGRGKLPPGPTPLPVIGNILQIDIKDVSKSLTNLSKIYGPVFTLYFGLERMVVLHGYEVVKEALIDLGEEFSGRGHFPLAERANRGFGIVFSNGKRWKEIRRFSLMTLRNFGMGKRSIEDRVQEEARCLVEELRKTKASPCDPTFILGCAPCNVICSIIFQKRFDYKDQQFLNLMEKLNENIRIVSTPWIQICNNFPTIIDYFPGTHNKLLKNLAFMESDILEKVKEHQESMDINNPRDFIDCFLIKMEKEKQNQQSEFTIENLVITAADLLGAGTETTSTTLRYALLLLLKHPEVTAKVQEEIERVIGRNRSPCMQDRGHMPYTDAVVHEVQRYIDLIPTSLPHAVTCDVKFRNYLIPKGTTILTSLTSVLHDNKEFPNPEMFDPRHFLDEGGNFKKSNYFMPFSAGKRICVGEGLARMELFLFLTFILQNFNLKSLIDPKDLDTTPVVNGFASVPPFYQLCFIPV
Melanocortin receptor 4, sequence (P32245 whole entry): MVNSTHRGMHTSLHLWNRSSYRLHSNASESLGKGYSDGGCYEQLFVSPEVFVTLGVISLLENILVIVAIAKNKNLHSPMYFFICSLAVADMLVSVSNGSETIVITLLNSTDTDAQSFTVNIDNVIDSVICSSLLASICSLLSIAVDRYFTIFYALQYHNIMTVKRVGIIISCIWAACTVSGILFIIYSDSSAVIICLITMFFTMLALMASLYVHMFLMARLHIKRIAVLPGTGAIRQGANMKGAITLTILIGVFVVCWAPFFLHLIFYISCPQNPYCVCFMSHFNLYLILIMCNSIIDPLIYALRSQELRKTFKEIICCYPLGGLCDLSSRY
Cytochrome P450 2C9, sequence (P11712 whole entry): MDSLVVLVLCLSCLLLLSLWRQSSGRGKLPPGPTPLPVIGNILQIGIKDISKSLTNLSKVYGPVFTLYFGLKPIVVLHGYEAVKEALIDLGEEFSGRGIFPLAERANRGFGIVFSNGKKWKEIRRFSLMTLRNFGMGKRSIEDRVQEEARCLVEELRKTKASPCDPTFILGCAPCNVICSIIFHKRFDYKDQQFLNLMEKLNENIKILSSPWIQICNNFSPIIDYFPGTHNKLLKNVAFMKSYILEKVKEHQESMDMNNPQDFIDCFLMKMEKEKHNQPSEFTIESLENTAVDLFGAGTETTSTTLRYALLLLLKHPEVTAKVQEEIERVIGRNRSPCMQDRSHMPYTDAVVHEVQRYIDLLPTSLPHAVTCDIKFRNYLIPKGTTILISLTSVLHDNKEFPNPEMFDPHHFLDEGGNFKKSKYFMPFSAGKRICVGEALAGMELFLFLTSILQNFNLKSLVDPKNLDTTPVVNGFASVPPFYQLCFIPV

In the case of `CCCCNS(=O)(=O)c1ccc2[nH]c(SCC(=O)Nc3ccccc3Cl)nc2c1`, the IC50 [1] was 18.5 µM (not active).

With `COc1ccc(OCC(=O)N/N=C2\CCc3ccccc32)cc1` the IC50 [2] was 42.9 µM (active).

In the case of `O=C(Cn1ncc2c3ccccc3n(Cc3ccccc3F)c2c1=O)NCCN1CCOCC1`, the IC50 [3] was 12 µM (active), the EC50 [4] was > 350 µM (not active) and the EC50 [5] was > 350 µM (not active).

In the case of `CCN1CCN(c2ccc(S(=O)(=O)N3CCOCC3)cc2NC(=O)/C=C/c2ccc(OC)cc2OC)CC1`, the EC50 [6] was 2.99 µM (active).

With `CC(C)C(=O)Nc1ccc(C(=O)N/N=C/c2cc(Br)cc(Br)c2O)cc1` the AC50 [7] was 16.7 µM (active), the EC50 [8] was 2.04 µM (active) and the EC50 [9] was 1.65 µM (active).

For `COc1ccc(C(=O)C2CCCN(C3Cc4ccccc4C3)C2)cc1OC` (configuration not stated), the EC50 [6] was 1.68 µM (active).

For `COc1cc(C(=S)N2CCOCC2)cc(OC)c1OC(=O)c1ccc(F)cc1`, the AC50 [7] was > 350 µM (inactive).

For `O=C1Nc2cc(C(=O)NCCCN3CCOCC3)ccc2S/C1=C/c1cccc(Cl)c1`, the IC50 [10] was > 20 µM (inactive), the IC50 [2] was 27.8 µM (active) and the CC50 [11] was > 40 µM (active).

In the case of `Cn1nc(C(=O)NNc2c(F)c(F)cc(F)c2F)c2ccccc2c1=O`, the IC50 [1] was 5.53 µM (not active).

In the case of `Cc1onc(-c2ccccc2)c1C(=O)Nc1nnc(COc2ccc(Cl)cc2)s1`, the IC50 [2] was 8.45 µM (active).

With `COc1ccc(C2CC(c3ccccc3)Nc3nc(NC(=O)c4cccs4)nn32)cc1` (configuration not stated) the EC50 [12] was 1.06 µM (active).

For `O=C(Nc1cc(-c2nc3ccccc3s2)ccc1Cl)c1ccc2c(c1)OCO2`, the EC50 [13] was > 89.2 µM (inactive), the AC50 [14] was 3.55 µM (inconclusive) and the AC50 [15] was 1.78 µM (inconclusive).

In the case of `CCCOc1cccc(C(=O)NCCNC(=O)c2ccco2)c1`, the EC50 [12] was 2.99 µM (active).

For `COc1ccc(F)cc1CN1CCN(C(=O)CCC(=O)Nc2nnc(C(C)C)s2)CC1`, the EC50 [6] was 0.841 µM (active).

With `Cc1ccc(SC[C@H](c2ccccc2)N2CCN(CCc3ccccc3)CCC2=O)cc1` the IC50 [1] was 7.19 µM (not active).

In the case of `O=C(C1CCCN(c2ncnc3c2nc2n3CCCCC2)C1)N1CCN(c2ccc(Cl)cc2)CC1` (configuration not stated), the IC50 [3] was 4.57 µM (active) and the CC50 [11] was > 40 µM (active).

With `COc1ccc(S(=O)(=O)N2CCCCN3[C@H](CO)[C@H](c4ccc(-c5cccnc5)cc4)[C@@H]3C2)cc1` the AC50 [16] was 25.6 µM (active) and the AC50 [17] was 20 µM (active).

Source: ChEMBL document CHEMBL1201862, “PubChem BioAssay data set” (2004)
